For orientation: Papp means a coefficient for how fast a substance crosses the barrier. As usually defined, the solubility is how much of the substance goes into solution per volume. A low value points to a poorly soluble substance.

In data set [1] the test system is M. bovis BCG over-expressing constituents of the trp operon. It counts as cell-based. As to conditions: pVV16 trpA or trpB.
The target in data set [2] is PLP-induced tryptophan synthase complex (Mycobacterium tuberculosis, UniProt P9WFX9+P9WFY1). It counts as binding.
Sequence of PLP-induced tryptophan synthase complex (P9WFY1 whole entry): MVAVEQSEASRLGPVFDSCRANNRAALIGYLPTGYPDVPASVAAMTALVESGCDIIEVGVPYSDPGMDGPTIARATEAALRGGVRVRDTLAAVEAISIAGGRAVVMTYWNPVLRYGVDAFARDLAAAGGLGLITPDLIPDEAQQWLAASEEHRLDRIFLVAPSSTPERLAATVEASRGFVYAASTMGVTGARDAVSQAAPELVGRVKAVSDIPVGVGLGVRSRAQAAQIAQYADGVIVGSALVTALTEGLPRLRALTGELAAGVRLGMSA
Sequence of PLP-induced tryptophan synthase complex (P9WFX9 12-421 limits assumed): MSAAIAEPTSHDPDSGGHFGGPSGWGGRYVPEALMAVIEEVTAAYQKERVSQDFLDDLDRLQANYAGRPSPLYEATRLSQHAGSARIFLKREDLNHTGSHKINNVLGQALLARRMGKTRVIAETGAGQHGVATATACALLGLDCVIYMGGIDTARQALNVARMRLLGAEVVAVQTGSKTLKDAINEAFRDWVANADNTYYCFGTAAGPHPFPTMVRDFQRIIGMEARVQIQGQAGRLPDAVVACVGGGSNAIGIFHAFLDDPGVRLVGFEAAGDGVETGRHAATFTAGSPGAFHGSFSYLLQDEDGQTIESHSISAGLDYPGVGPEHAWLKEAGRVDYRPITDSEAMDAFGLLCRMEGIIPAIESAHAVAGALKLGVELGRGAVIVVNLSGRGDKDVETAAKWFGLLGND
The nature of another data set: in vitro. Conditions: PAMPA. For orientation: In PAMPA a lipid-coated filter parts donor from acceptor wells.
For the next data set, the system named is M. bovis BCG. The data set is classed as cell-based, Mycobacterium bovis BCG.
For data set [3] the following is noted: pH 7.4.
The nature of another data set: physchem. As to conditions: pH 7.4, aqueous buffer, kinetic from dmso stock.
Data set [4] concerns Mtb H37Rv. The data set can be described thus: microbe, parasite or virus in culture. It counts as cell-based, Mycobacterium tuberculosis. As to conditions: for MIC: Mycobacterium tuberculosis, H37RV, read-out: Mtb H37Rv MIC.
Another data set relates to Mycobacterium bovis BCG. The data set can be described thus: microbe, parasite or virus in culture. The data set is classed as cell-based. Conditions: Mycobacterium tuberculosis variant bovis BCG, read-out: MIC in M. bovis BCG.
The nature of data set [5]: Property forecast index (ChromlogD pH 7.4 + number of aromatic rings). It counts as physicochemical.
Data set [6] has as its target T1, Mtb tryptophan synthase (TrpA and TrpB) (Mycobacterium tuberculosis, UniProt P9WFX9+P9WFY1). It counts as biochemical.
For data set [7] the following is noted: PAMPA.
The subject of data set [8] is Mtb H37Rv. As to conditions: mouse, in vivo.
The conditions of data set [9]: pH 7.4. The source holds these as a separate data set.
The conditions of data set [10]: pH 7.4. The source holds these as a separate data set.
The target of data set [11] is T1, Mtb tryptophan synthase (TrpA and TrpB). The data set is classed as biochemical. The source holds these as a separate data set.
[12] abbreviates: sum of chromatographic logD at pH = 7.4 + number of aromatic rings.

Values after ≈ are worked out from the molar mass of the structure shown. Where two headings read alike, the source gives them in different places.

T1 sequence (P9WFY1 whole entry): as the sequence (P9WFY1 whole entry) above
T1 sequence (P9WFX9 12-421 limits assumed): as the sequence (P9WFX9 12-421 limits assumed) above

As for `CNS(=O)(=O)c1ccc2c(c1)CCN2C(=O)c1ccccc1F` [Compound 2], the “Effect on MIC of over-expression of the individual WT subunits” value in data set [1] was “did not alter the MIC”. Also, the “Binding to PLP-induced tryptophan synthase complex” value in data set [2] was “binding of both inhibitors”. Moreover, the “HepG2 Tox50” value in the data set on HepG2 cells (human) was over 100 µM. Also, the Papp in the data set “in vitro” was 26 ×10⁻⁶ cm/s. Also, the “L-tryptophan rescue of inhibition” value in the data set on M. bovis BCG was “L-tryptophan rescued the inhibition”. Moreover, in data set [3], the “CLND Solubility” value was “enhanced solubility”. This molecule also yielded a solubility in the data set “physchem” of 140 µM (≈ 46.8 µg/mL). Moreover, the MIC with Mtb H37Rv [4] amounted to 5.6 µM (≈ 1.87 µg/mL); in the data set with Mycobacterium bovis BCG, 5 µM (≈ 1.67 µg/mL). In addition, in data set [5], the PFI stood at 5.80. Moreover, the “L-tryptophan synthesis in presence of inhibitor (TLC)” value in data set [6] is listed as “markedly decreased”.
In the case of “(3R,4R)-3-(4-(2-chloro-4-fluorophenyl)piperidin-1-yl)-4-hydroxytetrahydrothiophene 1,1-dioxide [Compound 5]”, the “AMP Permeability” value in data set [7] came out at 52 ×10⁻⁶ cm/s. In the data set with HepG2 cells, the “HepG2 Tox50” value is recorded as over 100 µM. Further, the “Efficacy response in acute infection assay” value with Mtb H37Rv [8] (sc) was “did not show a statistically significant response”. Further, the “CLND Solubility” value in data set [3] is given as 397 µM. The “Mtb H37Rv MIC” value in the data set on Mtb H37Rv [4] turned out to be 0.5 µM. The PFI in data set [5] (setting [12]) was 5.22.
As to `O=S1(=O)C[C@H](O)[C@@H](N2CCN(c3ccccc3Cl)CC2)C1` [Compound 1, (3R,4R)-3-(4-(2-chlorophenyl)piperazin-1-yl)-4-hydroxytetrahydrothiophene 1,1-dioxide], in data set [1], the “Effect on MIC of over-expression of the individual WT subunits” value is “did not alter the MIC”. Moreover, in the data set with HepG2 cells (human), the “HepG2 Tox50” value is over 50 µM. In addition, the Papp in “in vitro” was 38 ×10⁻⁶ cm/s. This molecule also registered a Cli mouse in [9] of 15.7 mL/min/g. In addition, the solubility in the data set “physchem” is over 464 µM. For the same molecule, the MIC in the data set with Mtb H37Rv [4] is 0.76 µM (≈ 0.251 µg/mL); with Mycobacterium bovis BCG it was 1 µM (≈ 0.331 µg/mL). In data set [5] (setting [12]), the PFI is given as 4.53. The molecule further showed a Cli human in [10] of 0.92 mL/min/g.
Take `NNC(=O)c1ccncc1` [Isoniazid, isoniazid, reference compound]: the “L-tryptophan rescue of inhibition” value in the data set on M. bovis BCG is “L-tryptophan does not rescue the inhibition”.
Regarding `CNS(=O)(=O)c1ccc2c(c1)CCN2C(=O)c1ccc(C)s1` [Compound 3], in data set [1], the “Effect on MIC of over-expression of the individual WT subunits” value is given as “did not alter the MIC”. Further, the “L-tryptophan produced in presence of inhibitor (GF-HPLC)” value in data set [11] is recorded as “significant decrease in the L-tryptophan produced”. Also, the “Binding to PLP-induced tryptophan synthase complex” value in data set [2] is “binding of both inhibitors”. In addition, the “HepG2 Tox50” value with HepG2 cells (human) is given as over 100 µM. In “in vitro”, this molecule displayed a Papp of 42.7 ×10⁻⁶ cm/s. Besides, in [9], the Cli mouse was 27.1 mL/min/g. Further, the “L-tryptophan rescue of inhibition” value in the data set with M. bovis BCG was “L-tryptophan rescued the inhibition”. For the same molecule, the “CLND Solubility” value in [3] is on record as “poor solubility”. The solubility in the data set “physchem” was found to be 19 µM (≈ 6.39 µg/mL). The MIC with Mtb H37Rv [4] was 1.1 µM (≈ 0.37 µg/mL); with Mycobacterium bovis BCG it was 0.7 µM (≈ 0.236 µg/mL). Besides, the Cli human in [10] amounted to 1.9 mL/min/g.
As to “(3R,4R)-3-(4-(2-chlorophenyl)piperidin-1-yl)-4-hydroxytetrahydrothiophene 1,1-dioxide [Compound 4]”, the “AMP Permeability” value in [7] was 62.5 ×10⁻⁶ cm/s. Besides, the “HepG2 Tox50” value in the data set with HepG2 cells is reported as over 100 µM. For the same molecule, the “Efficacy response in acute infection assay” value in the data set on Mtb H37Rv [8] is “proved to be efficacious”. Further, in the data set with Mtb H37Rv [8] (po, 350 mg/kg), the “Reduction of log CFU compared with untreated mice” value was 1.4 log colony forming units (CFU). For the same molecule, the “Tolerability in infected mice” value in the data set on Mtb H37Rv [8] (po, 500 mg/kg) was “had to be withdrawn due to adverse effects”. The “CLND Solubility” value in data set [3] was found to be 434 µM. In addition, the “Mtb H37Rv MIC” value in the data set on Mtb H37Rv [4] is recorded as 2.25 µM. Besides, the PFI in data set [5] (setting [12]) is on record as 5.43.

For the origin of these results see article PMC5573416, “Inhibiting mycobacterial tryptophan synthase by targeting the inter-subunit interface” (Scientific Reports, 2017).
